According to patent US12018032B2, “Crystalline forms of N-[4-[4-(4-morpholinyl)-7H-pyrrolo[2,3-d]pyrimidin-6-yl]phenyl]-4-[[3(r)-[(1-oxo-2-propen-1-yl)amino]-1-piperidinyl]methyl]-2-pyridinecarboxamide as an irreversible inhibitor of menin-MLL interaction” (BIOMEA FUSION, INC., priority 2021, dated 2024):

What was measured:
[1] = tested on: KRAS G12C NSCLC cell lines; experiment: KRAS mutant cell line viability (CellTiter Glo); type: cell-based, human; conditions: 8 unique cell lines, four days; mean of two or three repeats
[2] = tested on: KRAS G12C CRC cell line; experiment: KRAS mutant cell line viability (CellTiter Glo); type: cell-based, human; conditions: 1 cell line, four days
Experimental: (§1) The inhibitory effect on cell proliferation was investigated in the human pancreas KRAS mutated cell lines MIA PaCa-2, HuP-T4, HPAF-II, human lung KRAS mutated cell line NCI-H358, and human colon KRAS mutated cell lines SW837, SW60, and NCI-H747. […] Cells were grown by adhering to culture flasks, and maintained at 70%-80% confluency.
(§2) ATP is present in all metabolically active cells and is considered as a marker for viable cells. […] The cell proliferation assay was performed using a 96-well plate format.
(§3) Eight concentrations of test compound were assessed in duplicate for each experimental run. 100% cell proliferation is represented by the untreated cells (0.2% DMSO).
(§4) 200 μL of cell suspension were added to each well of a 96-well plate.
(§5) Cell viability was measured using CellTiter Glo. […] Cell viability was measured using CellTiter Glo.

[3] = tested on: KRAS G12C Pancreatic cell line; experiment: KRAS mutant cell line viability (CellTiter Glo); type: cell-based, human; conditions: 1 cell line, four days
Experimental: as §1, §2, §3, §4, §5

[4] = tested on: KRAS G12D Pancreatic cell lines; experiment: KRAS mutant cell line viability (CellTiter Glo); type: cell-based, human; conditions: 4 unique cell lines, four days
Experimental: as §1, §2, §3, §4, §5

[5] = tested on: KRAS G12V CRC cell line; experiment: KRAS mutant cell line viability (CellTiter Glo); type: cell-based, human; conditions: 1 cell line, four days
Experimental: as §1, §2, §3, §4, §5

[6] = tested on: KRAS G13D CRC cell lines; experiment: KRAS mutant cell line viability (CellTiter Glo); type: cell-based, human; conditions: 2 unique cell lines, four days
Experimental: as §1, §2, §3, §4, §5

[7] = tested on: KRAS G12D NSCLC cell line; experiment: KRAS mutant cell line viability (CellTiter Glo); type: cell-based, human; conditions: 1 cell line, four days
[8] = tested on: KRAS G12D CRC cell lines; experiment: KRAS mutant cell line viability (CellTiter Glo); type: cell-based, human; conditions: 2 unique cell lines, four days
[9] = tested on: KRAS G12D Gastric cell line; experiment: KRAS mutant cell line viability (CellTiter Glo); type: cell-based, human; conditions: 1 cell line, four days
[10] = tested on: RAS WT CRC cell lines; experiment: Cell line viability (CellTiter Glo); type: cell-based, human; conditions: 2 unique cell lines, four days
[11] = tested on: Human ex vivo PDX tissue models harboring KRAS mutations; experiment: Ex vivo PDX tissue viability (CellTiter Glo); type: cell-based; conditions: six days
Experimental: MOLM-13 and MiaPaCa-2 cells were incubated with Compound A for twenty-four hours and were analyzed by RNA-seq on an Illumina NextSeq 550 platform. […] Cell viability was measured using CellTiter Glo. Human ex vivo PDX tissue models harboring KRAS mutations were cultured with Compound A and clinical reversible menin inhibitors for six days. Cell viability was measured using CellTiter Glo.

For `CCN(C(=O)c1cc(F)ccc1Oc1cncnc1N1CC2(CCN(C[C@H]3CC[C@H](NS(=O)(=O)CC)CC3)CC2)C1)C(C)C` [SNDX-5613], the “KRAS G12C GI50, NSCLC (8)” value [1] was “LR (Limited Response (LR) = % growth inhibition < 30%)”, the “KRAS G12C GI50, CRC (1)” value [2] was “LR (Limited Response (LR) = % growth inhibition < 30%)” and the “KRAS G12C GI50, Pancreatic (1)” value [3] was “LR (Limited Response (LR) = % growth inhibition < 30%)”. For the same molecule, the “KRAS G12D GI50, Pancreatic (4)” value [4] was “LR (Limited Response (LR) = % growth inhibition < 30%)”, the “KRAS G12V GI50, CRC (1)” value [5] was “LR (Limited Response (LR) = % growth inhibition < 30%)” and the “KRAS G13D GI50, CRC (2)” value [6] was “LR (Limited Response (LR) = % growth inhibition < 30%)”. For the same molecule, the “KRAS G12D GI50, NSCLC (1)” value [7] was “LR (Limited Response (LR) = % growth inhibition < 30%)”, the “KRAS G12D GI50, CRC (2)” value [8] was “LR (Limited Response (LR) = % growth inhibition < 30%)” and the “KRAS G12D GI50, Gastric (1)” value [9] was “LR (Limited Response (LR) = % growth inhibition < 30%)”. For the same molecule, the “RAS WT GI50, CRC (2)” value [10] was “LR (Limited Response (LR) = % growth inhibition < 30%)”, the GI50 ([11]; BM-201 (Stage III), G12C, NSCLS) was “LR (Limited Response (LR) = % growth inhibition < 30%)” and the GI50 ([11]; BM-202, G12C, NSCLS) was “LR (Limited Response (LR) = % growth inhibition < 30%)”. The GI50 ([11]; BM-203 (Stage IV), G12C, CRC) was “LR (Limited Response (LR) = % growth inhibition < 30%)”, the GI50 ([11]; BM-204 (Stage IV), G12D, CRC) was “LR (Limited Response (LR) = % growth inhibition < 30%)” and the GI50 ([11]; BM-205 (Stage IV), G12D, CRC) was “LR (Limited Response (LR) = % growth inhibition < 30%)”. The GI50 ([11]; BM-206, G12D, Pancreatic) was “LR (Limited Response (LR) = % growth inhibition < 30%)”, the GI50 ([11]; BM-207, G12D, Pancreatic) was “LR (Limited Response (LR) = % growth inhibition < 30%)” and the GI50 ([11]; BM-208 (Stage IV), G12D, NSCLS) was “LR (Limited Response (LR) = % growth inhibition < 30%)”.
